Results taken from patent US7777060B2, “Platinum analogs with bis-nitrile-containing ligands” (BioNumerik Pharmaceuticals, Inc., priority 2007, dated 2010).
pIC50: −log10 of the molar value.

Key:
Format in all cases: cell-based
[1] = tested on: A2780/WT; assay: Cytotoxicity IC50 in A2780/WT cell line, 1 hour drug exposure; conditions: 1 hour of exposure to the drug; average of repeat experiments
Description: (§1) All experiments are with 1 hour of exposure to the drug, IC50 in μM. The platinum compounds have been tested by the resistance factor in CP3 cell line (CP3 Rfact) and C25 cell line (C25 Rfact). The terms (CP3 Rfact) and (C25 Rfact) are determined utilizing the following equations, wherein WT stands for wild-type. CP3 Rfact=IC50 in A2780/CP3÷IC50 in A2780/WT C25 Rfact=IC50 in A2780/C25÷IC50 in A2780/WT
(§2) In addition, Compounds with “ - - - ” in the IC50 column indicate the IC50s are >100 μM.

[2] = tested on: A2780/CP3; assay: Cytotoxicity IC50 in A2780/CP3 cell line, 1 hour drug exposure; conditions: for pIC50: 1 hour of exposure to the drug, average of repeat experiments, dash = IC50 >100 μM; for CP3 Rfact: resistance factor = IC50 in A2780/CP3 ÷ IC50 in A2780/WT
Description: as §1, §2

[3] = tested on: A2780/C25; assay: Cytotoxicity IC50 in A2780/C25 cell line, 1 hour drug exposure; conditions: for pIC50: 1 hour of exposure to the drug, average of repeat experiments; for C25 Rfact: resistance factor = IC50 in A2780/C25 ÷ IC50 in A2780/WT
Description: as §1, §2

## N#CCc1ccccc1C(F)(F)F.N#CCc1ccccc1C(F)(F)F.[Cl][Pt@SP1][Cl] [BNP3037/t, Trans-bis-[2-(trifluoromethyl)-phenylacetonitrile]dichloroplatinum]
[1]
  pIC50: 4.06
[2]
  pIC50: < 4.00
[3]
  pIC50: 4.16
  C25 Rfact: 0.79

## Trans-bis(2,6-difluoro-3-methylphenylacetonitrile)dichloroplatinum (II) [BNP3036/t]
[1]
  pIC50: 4.63
[2]
  pIC50: 4.27
  CP3 Rfact: 2.28
[3]
  pIC50: 4.45
  C25 Rfact: 1.49

## Cc1ccccc1CC#[N+][Pt-2]([Cl])([Cl])[N+]#CCc1ccccc1C [BNP3024, Cis-bis-(o-tolylacetonitrile)dichloroplatinum (II)]
[1]
  pIC50: 4.86
[2]
  pIC50: 4.73
  CP3 Rfact: 1.34
[3]
  pIC50: 4.73
  C25 Rfact: 1.34

## Cis-bis(cyclopropaneacetonitrile)dichloroplatinum (II) [BNP3014/c]
[1]
  pIC50: 4.63
[2]
  pIC50: 4.25
  CP3 Rfact: 2.39
[3]
  pIC50: 4.34
  C25 Rfact: 1.94

## Cis-bis-[4-(trifluoromethoxy)-phenylacetonitrile]dichloroplatinum (II) [BNP3031]
[1]
  pIC50: 4.73
[2]
  pIC50: 4.45
  CP3 Rfact: 1.95
[3]
  pIC50: 4.63
  C25 Rfact: 1.26

## N#CCc1ccc2c(c1)OCO2.N#CCc1ccc2c(c1)OCO2.[Cl][Pt@SP1][Cl] [BNP3016, Cis-bis(3,4-(methylenedioxy)phenylacetonitrile)dichloroplatinum (II)]
[1]
  pIC50: 4.20
[2]
  pIC50: 4.12
  CP3 Rfact: 1.21
[3]
  pIC50: 4.18
  C25 Rfact: 1.07

## Cc1cccc(CC#[N+][Pt-2]([Cl])([Cl])[N+]#CCc2cccc(C)c2)c1 [BNP3026, Cis-bis(m-tolylacetonitrile)dichloroplatinum (II)]
[1]
  pIC50: 4.67
[2]
  pIC50: 4.55
  CP3 Rfact: 1.32
[3]
  pIC50: 4.62
  C25 Rfact: 1.11

## N#CC1Cc2ccccc21.N#CC1Cc2ccccc21.[Cl][Pt@SP1][Cl] (stereo not drawn) [BNP3030, Cis-bis(bicyclo[4.2.0]octa-1(6),2,4-triene-7-carbonitrile)dichloroplatinum (II)]
[1]
  pIC50: 4.29
[2]
  pIC50: 4.21
  CP3 Rfact: 1.20
[3]
  pIC50: 4.23
  C25 Rfact: 1.15

## N#CCCC1CCCCC1=O.N#CCCC1CCCCC1=O.[Cl][Pt@SP1][Cl] (stereo not drawn) [BNP3020, Cis-bis[3-(2-oxo-cyclohexyl)-propionitrile]dichloroplatinum (II)]
[1]
  pIC50: 4.29
[2]
  pIC50: 4.07
  CP3 Rfact: 1.63
[3]
  pIC50: 4.21
  C25 Rfact: 1.19

## N#CCCCc1ccccc1.N#CCCCc1ccccc1.[Cl][Pt@SP1][Cl] [BNP3029/c, Cis-bis-(4-phenylbutyronitrile)dichloroplatinum (II)]
[1]
  pIC50: 5.36
[2]
  pIC50: 5.16
  CP3 Rfact: 1.56
[3]
  pIC50: 5.26
  C25 Rfact: 1.24

## [Cl][Pt-2]([Cl])([N+]#CC1CCC1)[N+]#CC1CCC1 [BNP3021, Cis-bis-(cyclobutanecarbonitrile)dichloroplatinum (II)]
[1]
  pIC50: 4.86
[2]
  pIC50: 4.38
  CP3 Rfact: 2.97
[3]
  pIC50: 4.53
  C25 Rfact: 2.10

## COC(CCC#N)c1ccccc1.COC(CCC#N)c1ccccc1.[Cl][Pt@SP1][Cl] (stereo not drawn) [BNP3017, Cis-bis(4-methoxy-4-phenylbutyronitrile)dichloroplatinum (II)]
[1]
  pIC50: 4.85
[2]
  pIC50: 4.73
  CP3 Rfact: 1.34
[3]
  pIC50: 4.74
  C25 Rfact: 1.29

## N#CCCCc1ccccc1.N#CCCCc1ccccc1.[Cl][Pt@SP1][Cl] [BNP3029/t, Trans-bis-(4-phenylbutyronitrile)dichloroplatinum (II)]
[1]
  pIC50: 4.79
[2]
  pIC50: 4.72
  CP3 Rfact: 1.19
[3]
  pIC50: 4.75
  C25 Rfact: 1.09

## CCCCOCCC#N.CCCCOCCC#N.[Cl][Pt@SP1][Cl] [BNP3022, Cis-bis(3-butoxypropanenitrile)dichloroplatinum (II)]
[1]
  pIC50: 4.13
[2]
  pIC50: < 4.00
[3]
  pIC50: 4.19
  C25 Rfact: 0.88

## Trans-bis(cyclopropaneacetonitrile)dichloroplatinum (II) [BNP3014/t]
[1]
  pIC50: 4.17
[2]
  pIC50: < 4.00
[3]
  pIC50: 4.04
  C25 Rfact: 1.35
